Where “and” joins values, the source holds several entries; their conditions need not be identical. Equal values may be shown once. Read-outs that look alike come from different tables or passages of the source.
Columns and labels:
Solvent freezing point = type: physicochemical
[1] = Solvent viscosity at 20° C.; type: physicochemical; settings: 20° C./1 Bar
Solvent flash point = type: physicochemical
algae = settings: according to MSDS; cited from earlier work
invertebrates = settings: in vivo; cited from earlier work
fish = settings: according to MSDS; cited from earlier work
[2] = according to MSDS; cited from earlier work
[3] = Corrosion rate, autoclave tests; settings: corrosion values of Tables 2 and 3
Experimental: The corrosion rates shown in Table 2 were obtained using autoclave tests at 80° C., a partial pressure of CO2 of 0.75 bar, a brine/hydrocarbon ratio of 99 to 1 and a shear stress of 60 Pa.

[4] = according to MSDS; cited from earlier work; remark: listed apart in the source
[5] = at 20° C.; background statement; cited from earlier work
[6] = listed as ethylene glycol n-butyl ether acetate

SMILES | Freezing Point (Solvent freezing point) [°C] | Viscosity [1] [cP] | Flash Point (Solvent flash point) [°C] | also measured
CCCCOCCO [Butyl Cellosolve ™, ethylene glycol monobutyl ether] | −75.0 | 2.9 | 67.0 | –
CCCCOCCOC(C)=O [Ethylene Glycol N-Butyl Ether Acetate, ethylene glycol n-butyl ether acetate] | −64.0 | 1.81 | 78 | EbC50 for algae (algae): > 10 mg/L; EC50 for invertebrates (invertebrates): > 10 µg/mL; LC50 for fish (fish): > 10 µg/mL; Freezing Point (Solvent freezing point; [6]): about −64 °C; Log Pow bioaccumulation potential [2]: less than 3; Viscosity [1, 6]: 1.79 cP and 1.81 cP; Flash Point (Solvent flash point; [6]): about 78 °C; effect of solvent on performance of the corrosion inhibitors [3]: did not significantly affect the performance of the corrosion inhibitors; biodegradable in seawater [4]: 77-90%
CC(C)O [Isopropanol] | −89.0 | 2.1 | 14 | –
CO [Methanol] | −97.8 | 0.59 | 12 | –
OCCO [Monoethylene Glycol] | −13.0 | 17.3 | 116 | Viscosity [5]: 17 cP
CC(O)CO (stereo not drawn) [Propylene Glycol] | −59.0 | 55.0 | 99.0 | –
O [Water] | 0 | 0.895 | – | –

— patent US20170342312A1, “COMPOSITION AND METHOD FOR VISCOSITY CONTROL IN DELIVERY APPLICATIONS USING SUBSEA UMBILICALS” (BAKER HUGHES, A GE COMPANY, LLC, priority 2016, published 2017)
